Experiment [1] concerns the target T1, hSERT (Homo sapiens, UniProt P31645). Kind of experiment: hSERT neurotransmitter uptake assay (3H-5-HT), Assay 2. It is filed as cell-based. Also on record: expressed in transfected cells; host or cells: HEK-293. As to conditions: serotonin reuptake inhibition, 3H-5-HT uptake, HEK-293 hSERT cells (values without asterisk); read-out: SERT pIC50 (converted). As to the method: (§1) Cells were harvested by centrifugation at 1100 rpm for 5 minutes, washed once by resuspension in PBS, then centrifuged. The supernatant was discarded and the cell pellet resuspended, by gentle trituration, in room temperature Krebs-Ringer bicarbonate buffer containing HEPES (10 mM), CaCl2 (2.2 mM), ascorbic acid (200 μM) and pargyline (200 μM), pH 7.4.
(§2) Test compounds were incubated for 30 minutes at 37° C. with the respective cells, prior to addition of radiolabeled neurotransmitter, ^3H-5-HT (20 nM final concentration), ^3H-NE (50 nM final concentration) or ^3H-DA (100 nM final concentration).

The target of experiment [2] is T2, hNET (Homo sapiens, UniProt P23975). Put plainly: hNET neurotransmitter uptake assay (3H-NE), Assay 2. The experiment is classed as cell-based. Also noted: expressed in transfected cells; host or cells: HEK-293. As to conditions: norepinephrine reuptake inhibition, 3H-NE uptake, HEK-293 hNET cells (values without asterisk); read-out: NET pIC50 (converted). The procedure: as §1, §2
T2 sequence (P23975 whole entry): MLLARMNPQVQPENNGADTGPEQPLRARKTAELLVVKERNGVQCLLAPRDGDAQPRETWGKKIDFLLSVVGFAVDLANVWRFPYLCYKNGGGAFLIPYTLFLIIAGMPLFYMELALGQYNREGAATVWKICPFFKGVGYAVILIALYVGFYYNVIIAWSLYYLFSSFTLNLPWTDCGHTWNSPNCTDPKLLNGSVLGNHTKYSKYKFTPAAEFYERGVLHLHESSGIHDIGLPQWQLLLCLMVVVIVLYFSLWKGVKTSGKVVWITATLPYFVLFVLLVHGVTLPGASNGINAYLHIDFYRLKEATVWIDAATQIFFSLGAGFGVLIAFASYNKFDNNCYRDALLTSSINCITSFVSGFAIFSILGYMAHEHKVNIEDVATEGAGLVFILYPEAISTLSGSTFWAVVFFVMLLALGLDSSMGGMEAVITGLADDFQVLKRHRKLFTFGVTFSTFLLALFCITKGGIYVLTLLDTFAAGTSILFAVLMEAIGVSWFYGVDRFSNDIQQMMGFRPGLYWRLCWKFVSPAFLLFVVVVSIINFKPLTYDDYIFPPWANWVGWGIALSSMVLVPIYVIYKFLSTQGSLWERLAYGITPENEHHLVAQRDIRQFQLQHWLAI

Experiment [3] addresses T2, hNET. Kind of experiment: hNET membrane radioligand binding assay (3H-nisoxetine), Assay 1.
In experiment [4] the target is T1, hSERT. Kind of experiment: hSERT membrane radioligand binding assay (3H-citalopram), Assay 1. As to conditions: SERT pKi, hSERT HEK-293 membranes, 1.0 nM 3H-citalopram; values given as lower bounds.

We go through 28 compounds from US7994209B2, “3-phenoxymethylpyrrolidine compounds” (Theravance, Inc., priority 2009, dated 2011).

A value given as a limit tells only on which side of the number the result lay.

T1 sequence (P31645 whole entry): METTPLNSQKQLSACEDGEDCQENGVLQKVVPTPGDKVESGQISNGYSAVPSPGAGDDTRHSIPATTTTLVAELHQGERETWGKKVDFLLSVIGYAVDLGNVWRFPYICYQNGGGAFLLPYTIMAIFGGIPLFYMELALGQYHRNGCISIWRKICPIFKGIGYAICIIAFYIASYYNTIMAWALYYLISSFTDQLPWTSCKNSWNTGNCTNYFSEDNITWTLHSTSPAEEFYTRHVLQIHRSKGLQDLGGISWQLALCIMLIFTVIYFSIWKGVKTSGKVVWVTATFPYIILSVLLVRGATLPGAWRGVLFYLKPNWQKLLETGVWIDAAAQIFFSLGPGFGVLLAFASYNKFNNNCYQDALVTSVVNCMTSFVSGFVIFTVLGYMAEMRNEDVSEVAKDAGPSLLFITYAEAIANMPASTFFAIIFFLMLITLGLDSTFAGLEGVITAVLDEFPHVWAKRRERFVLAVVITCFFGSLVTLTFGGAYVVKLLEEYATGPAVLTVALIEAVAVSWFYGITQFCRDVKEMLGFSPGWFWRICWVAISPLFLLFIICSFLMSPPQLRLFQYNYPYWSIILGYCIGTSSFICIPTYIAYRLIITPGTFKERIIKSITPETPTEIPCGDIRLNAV

Consider `CC(C)C[C@H](Oc1cc(F)cc(Cl)c1)[C@H]1CCNC1` [Example 10-81, (S)-3-[(S)-1-(3-Chloro-5-fluorophenoxy)-3-methylbutyl]pyrrolidine], for which the IC50 at hSERT [1] and on hNET [2] was at most 10 nM throughout. Further, the Ki at hNET [3] and at hSERT [4] was at most 10 nM in each case.
Turning to `CC(C)C[C@H](Oc1c(Cl)cccc1Cl)[C@H]1CCNC1` [Example 10-54, (S)-3-[(S)-1-(2,6-Dichlorophenoxy)-3-methylbutyl]pyrrolidine], the IC50 at hSERT [1] and at hNET [2] was at most 10 nM in each case. For the same compound, the Ki on hNET [3] and on hSERT [4] was at most 10 nM in each case.
Turning to `CC[C@H](Oc1ccc(F)c(Cl)c1)[C@H]1CCNC1` [Example 2-21, (S)-3-[(S)-1-(3-Chloro-4-fluorophenoxy)propyl]pyrrolidine], the values for the IC50 on hSERT [1] and on hNET [2] were at most 100 nM and at most 10 nM, respectively. In addition, the Ki at hNET [3] and at hSERT [4] was at most 10 nM each time.
On to `CC(C)[C@H](Oc1c(Cl)ccc(Cl)c1Cl)[C@H]1CCNC1` [Example 6-35, (S)-3-[(S)-2-Methyl-1-(2,3,6-trichlorophenoxy)-propyl]-pyrrolidine], for which the IC50 at hSERT [1] and at hNET [2] was at most 10 nM throughout. For the same compound, the Ki at hNET [3] and at hSERT [4] was at most 10 nM in each case.
Take `CC(C)[C@H](Oc1cc(Cl)cc(Cl)c1)[C@H]1CCNC1` [Example 6-66, (S)-3-[(S)-1-(3,5-Dichlorophenoxy)-2-methylpropyl]pyrrolidine]: the IC50 on hSERT [1] is at most 10 nM; at hNET [2], at most 100 nM. Besides, the Ki (commonly the equilibrium dissociation constant of an inhibitor or competing ligand from its target) was at most 100 nM on hNET [3] and at most 10 nM at hSERT [4].
As for `CC[C@H](Oc1c(F)ccc(F)c1Cl)[C@H]1CCNC1` [Example 2-40, (S)-3-[(S)-1-(2-Chloro-3,6-difluorophenoxy)propyl]pyrrolidine], the IC50 at hSERT [1] is at most 100 nM; at hNET [2] it was at most 10 nM. Besides, the Ki at hNET [3] and at hSERT [4] was at most 10 nM in each case.
Regarding `CC(C)CC(Oc1c(F)ccc(Cl)c1F)C1CCNC1` (stereo not shown) [Example 10-59, 3-[1-(3-Chloro-2,6-difluorophenoxy)-3-methylbutyl]pyrrolidine], the IC50 at hSERT [1] and at hNET [2] was at most 10 nM in each case. Further, the Ki at hNET [3] and at hSERT [4] was at most 10 nM throughout.
Consider `CCCC[C@@H](Oc1cc(F)c(F)cc1F)[C@H]1CCNC1` [Example 7, (S)-3-[(R)-1-(2,4,5-Trifluorophenoxy)pentyl]pyrrolidine], for which the IC50 at hSERT [1] is at most 100 nM; on hNET [2] it was at most 10 nM. The Ki at hNET [3] and on hSERT [4] was at most 10 nM each time.
Regarding `Fc1cc(O[C@@H](C2CC2)[C@H]2CCNC2)ccc1Cl` [Example 16-93, (S)-3-[(S)-(4-Chloro-3-fluorophenoxy)cyclopropylmethyl]pyrrolidine], the IC50 on hSERT [1] and on hNET [2] was at most 10 nM in each case. Further, the Ki on hNET [3] and at hSERT [4] was at most 10 nM each time.
As to `CCCC[C@@H](Oc1ccc(Cl)cc1)[C@H]1CCNC1` [Example 8-4, (S)-3-[(R)-1-(4-Chlorophenoxy)pentyl]pyrrolidine], the IC50 at hSERT [1] and on hNET [2] was at most 10 nM throughout. Further, the Ki at hNET [3] and at hSERT [4] was at most 10 nM in each case.
Regarding `CC(C)CC(Oc1ccc(Cl)cc1F)C1CCNC1` (stereo not shown) [Example 10-39, 3-[1-(4-Chloro-2-fluorophenoxy)-3-methylbutyl]pyrrolidine], the IC50 on hSERT [1] and at hNET [2] was at most 10 nM throughout. Also, the Ki at hNET [3] and at hSERT [4] was at most 10 nM each time.
Regarding `CC(C)CC(Oc1c(Cl)ccc(Cl)c1F)C1CCNC1` (stereo not shown) [Example 10-58, 3-[1-(3,6-Dichloro-2-fluorophenoxy)-3-methylbutyl]pyrrolidine], the IC50 on hSERT [1] and on hNET [2] was at most 10 nM each time. Besides, the Ki at hNET [3] and at hSERT [4] was at most 10 nM each time.
For `CC[C@@H](Oc1c(Cl)ccc(Cl)c1Cl)[C@H]1CCNC1` [Example 2-38, (S)-3-[(R)-1-(2,3,6-Trichlorophenoxy)propyl]pyrrolidine], the values for the IC50 at hSERT [1] and on hNET [2] were at most 100 nM and at most 10 nM, respectively. Besides, the Ki at hNET [3] and on hSERT [4] was at most 10 nM throughout.
As to `CCc1cc(F)ccc1O[C@H](C1CC1)[C@H]1CCNC1` [Example 16-33, (S)-3-[(R)cyclopropyl-(2-ethyl-4-fluorophenoxy)-methyl]pyrrolidine], the IC50 on hSERT [1] is at most 100 nM; at hNET [2], at most 10 nM. Further, the inhibition constant (Ki) on hNET [3] was at most 10 nM; at hSERT [4], at most 100 nM.
On to `CC(C)[C@@H](Oc1cc(Cl)cc(Cl)c1)[C@H]1CCNC1` [Example 6-68, (S)-3-[(R)-1-(3,5-Dichlorophenoxy)-2-methylpropyl]pyrrolidine], for which the IC50 at hSERT [1] and at hNET [2] was at most 10 nM in each case. For the same compound, the Ki on hNET [3] and at hSERT [4] was at most 10 nM throughout.
On to `CCCC[C@@H](Oc1ccccc1Cl)[C@H]1CCNC1` [Example 8-1, (S)-3-[(R)-1-(2-Chlorophenoxy)pentyl]pyrrolidine], for which the IC50 at hSERT [1] was at most 100 nM; at hNET [2], at most 10 nM. For the same compound, the Ki at hNET [3] and on hSERT [4] was at most 10 nM each time.
Regarding `Fc1cccc(O[C@@H](C2CC2)[C@H]2CCNC2)c1Cl` [Example 16-9, (S)-3-[(S)-(2-Chloro-3-fluorophenoxy)cyclopropylmethyl]pyrrolidine], the values for the IC50 on hSERT [1] and at hNET [2] were at most 100 nM and at most 10 nM, respectively. The Ki at hNET [3] and at hSERT [4] was at most 10 nM each time.
With `CC(C)C(Oc1cccc(F)c1Cl)C1CCNC1` (stereo not shown) [Example 6-18, 3-[1-(2-Chloro-3-fluorophenoxy)-2-methylpropyl]pyrrolidine], the IC50 was at most 100 nM on hSERT [1] and at most 10 nM on hNET [2]. Also, the Ki on hNET [3] and at hSERT [4] was at most 10 nM in each case.
Take `CCC[C@H](Oc1ccc(Cl)c(Cl)c1)[C@H]1CCNC1` [Example 4-12, (S)-3-[(S)-1-(3,4-Dichlorophenoxy)butyl]pyrrolidine]: the IC50 at hSERT [1] and at hNET [2] was at most 10 nM in each case. The Ki at hNET [3] and on hSERT [4] was at most 10 nM in each case.
In the case of `Cc1ccc(O[C@@H](C2CC2)[C@H]2CCNC2)c(Br)c1` [Example 16-25, (S)-3-[(S)-(2-Bromo-4-methylphenoxy)cyclopropylmethyl]pyrrolidine], the IC50 at hSERT [1] and on hNET [2] was at most 10 nM each time. Also, the Ki at hNET [3] and at hSERT [4] was at most 10 nM throughout.
Turning to `Fc1ccc(O[C@@H](C2CC2)[C@H]2CCNC2)cc1Cl` [Example 16-89, (S)-3-[(S)-(3-Chloro-4-fluorophenoxy)cyclopropylmethyl]pyrrolidine], the IC50 on hSERT [1] and at hNET [2] was at most 100 nM throughout. The Ki on hNET [3] and at hSERT [4] was at most 10 nM throughout.
In the case of `CC[C@H](Oc1cc(F)c(OC)c(F)c1)[C@H]1CCNC1` [Example 2-22, (S)-3-[(S)-1-(3,5-Difluoro-4-methoxyphenoxy)propyl]pyrrolidine], the values for the IC50 at hSERT [1] and on hNET [2] were at most 100 nM and at most 10 nM, respectively. The Ki on hNET [3] and on hSERT [4] was at most 10 nM in each case.
As for `CCC[C@H](Oc1ccc(C)cc1Cl)[C@H]1CCNC1` [Example 4-37, (S)-3-[(S)-1-(2-Chloro-4-methylphenoxy)butyl]pyrrolidine], the IC50 at hSERT [1] and on hNET [2] was at most 10 nM throughout. In addition, the Ki at hNET [3] and at hSERT [4] was at most 10 nM throughout.
As to `Fc1cc(Cl)cc(O[C@H](C2CC2)[C@H]2CCNC2)c1` [Example 16-99, (S)-3-[(R)-(3-Chloro-5-fluorophenoxy)cyclopropylmethyl]pyrrolidine], the IC50 was at most 100 nM at hSERT [1] and at most 10 nM at hNET [2]. Further, the Ki on hNET [3] and on hSERT [4] was at most 10 nM throughout.
`CCC[C@H](Oc1cccc2ccccc12)[C@H]1CCNC1` [Example 14-3, (S)-3-[(S)-1-(Naphthalen-1-yloxy)butyl]pyrrolidine]: the IC50 on hSERT [1] and at hNET [2] was at most 10 nM throughout. Also, the inhibition constant (Ki) at hNET [3] and at hSERT [4] was at most 10 nM in each case.
Take `CC(C)[C@H](Oc1c(F)ccc(F)c1Cl)[C@H]1CCNC1` [Example 6-36, (S)-3-[(S)-1-(2-Chloro-3,6-difluorophenoxy)-2-methylpropyl]pyrrolidine]: the results for the IC50 at hSERT [1] and on hNET [2] were at most 100 nM and at most 10 nM, respectively. The Ki at hNET [3] and at hSERT [4] was at most 10 nM each time.
As to `CC(C)[C@H](Oc1ccc(Cl)c(Cl)c1F)[C@H]1CCNC1` [Example 6-7, (S)-3-[(S)-1-(3,4-Dichloro-2-fluorophenoxy)-2-methylpropyl]pyrrolidine], the IC50 at hSERT [1] and on hNET [2] was at most 10 nM throughout. The Ki on hNET [3] and on hSERT [4] was at most 10 nM throughout.
As for `CC(C)[C@@H](Oc1ccc(Cl)cc1)[C@@H]1CCNC1` [Example 6-75, (R)-3-[(R)-1-(4-Chlorophenoxy)-2-methylpropyl]pyrrolidine], the values for the IC50 on hSERT [1] and on hNET [2] were at most 10 nM and at most 100 nM, respectively. In addition, the figures for the Ki at hNET [3] and at hSERT [4] were at most 100 nM and at most 10 nM, respectively.
